In patent publication US20240262844A1, “PYRIDINIUM SALTS AND METHODS OF USE” (UNIVERSITY OF WYOMING, priority 2023, published 2024):
“And” between values parts separate entries of the source, which are not always exact repeats. Equal values may be shown once. “Also recorded” adds a separate entry of the source. Where a name gives a salt, the structure may show the parent alone. Blank lines part the entries; values can stand above or below the compound they belong to.

What was measured:
[1] = test system: HEK293T lysates; experiment: Chemoproteomic profiling of HEK293T lysates (protein-level enrichment); assay type: biochemical, Human
Protocol: In lysate tryptophan probe treatment for protein-level characterization: HEK293T cell pellets were suspended in native lysis buffer (50 mM HEPES pH 7.5, 150 mM sodium chloride (NaCl), 1.5 mM MgCl2, 1 mM DTT, 0.8% NP-40, 5% glycerol, and 1x protease inhibitors (Thermo)) at 2x the pellet volume. The samples were sonicated on ice for 30 seconds at 20% amplitude with a 2 second pulse ON and 3 second pulse OFF. Cell debris was removed by centrifugation at 20,000×g for 20 minutes at 4° C. Protein concentration was determined by bicinchoninic acid (BCA) (Pierce) and diluted down to 5 mg/mL with ChemProt buffer (50 mM HEPES pH 7.5, 150 mM NaCl, 1.5 mM MgCl2, 1 mM DTT, 0.4% NP-40, and 1x protease inhibitors (Thermo). 5 mg cell lysates were treated with 100x stocks of the tryptophan probes (pyridinium salts 1a, 1b, and 2b) to generate final concentrations (0, 1, 10, and 100 μM) in 1% DMSO. Lysates were incubated for 1 hour at 4° C. followed by photo-activation at respective wavelengths for 20 minutes at 4° C. Excess probe was removed using Sephadex G-25 PD-10 desalting columns (GE Healthcare) pre-equilibrated with 50 mM HEPES pH 7.5, 150 mM NaCl, 1.5 mM MgCl2, and 0.4% NP-40. The samples were then treated with 100 μL Neutravidin resin as a 50% slurry (Peirce). The samples were incubated overnight on a rotating apparatus at R.T. The following day, the beads were transferred to a MobiCol column (Boca Scientific), washed 3× with phosphate buffered saline (PBS) containing 0.2% SDS, washed 3x with PBS, and the enriched proteins were eluted with 2×NuPAGE lithium dodecyl sulfate (LDS) containing 10 mM DTT (Pierce) and heated for 30 minutes at 55° C. The eluent was collected and subsequently treated with 20 mM iodoacetamide (Pierce) for 30 minutes at R.T. protected from light. Samples were passed through detergent removal columns (Pierce) that were pre-equilibrated with 50 mM HEPES pH 8.0. The samples were treated with 2.5 μg Trypsin/LysC (Promega) at 37° C. for 16 hours. The following day, the sample was collected and prepped for isobaric labeling with TMT reagents (Thermo) as specified by the manufacturer.
Quantitative proteomics by two-dimensional nano liquid chromatography-tandem mass spectrometry (nLC-MS/MS): For protein-level characterization, the TMT-labeled sample were reconstituted in 0.1% formic acid (FA)/2% acetonitrile for offline high-pH reversed phase separation (RP10) using a Dionex UltiMate 3000 high-performance liquid chromatography (HPLC) system with fraction collection using Chromeleon v.6.8 (Thermo) software. Separation was achieved on a Waters Xbridge C18 3.5 μm 2.1×150 mm HPLC column (Waters) using a flow rate of 250 μL min-1 and the following ternary gradient and conditions: mobile phase A=water (HPLC grade), mobile phase B=acetonitrile (HPLC grade), and mobile phase C=200 mM ammonium acetate, pH 10. Mobile phase C is held at 10% throughout gradient. Starting conditions are 89% mobile phase A and 1% mobile phase B, ramping mobile phase B to 80% over 65 min. Fractions were collected in 96-well plates at 100 see per well. Fractions were reduced down to 12 fractions, dried, and reconstituted in 0.1% FA/2% acetonitrile for nLC-MS/MS. All data were acquired using a Orbitrap Fusion Lumos coupled to an Easy-nLC 1200 nanoflow liquid chromatograph operating at 300 nL min^−1. Peptides were cleaned up using a 1 cm online custom trap then eluted on a custom 20 cm laser pulled 75 μm column with C18 resin. Peptides were quantified using the synchronous precursor selection (SPS-MS3) or HCD method for TMT quantitation with 120k MS1 resolving power, 50 ms max injection time and 100% AGC. MS2 spectra were selected using the top ten most abundant features with a charge state between 2-6 using CID (collision induced dissociation) in the ion trap. The AGC was set to 100% with an isolation width of 0.7. MS3 was performed on the top 10 most abundant MS2 features between 400-1600 amu with a collision energy of 55%, AGC of 250%, and 50k resolution. […]

[2] = test system: Octreotide acetate (1 kDa); experiment: Photochemical labeling of octreotide (LC/MS); assay type: biochemical; conditions: 10 μM octreotide acetate, 100 μM pyridinium salt, 30 minutes
Protocol: General Procedure B: Photochemical Irradiation of Peptides and Proteins: To a 2 mL Pyrex LC/MS vial (Thermo model #03-391-39) were sequentially added solutions containing the desired biomolecule, glutathione (GSH), pyridinium salt, and ammonium acetate (NH4OAc). The resulting solution was diluted to a final volume of 500 μL and then sparged using nitrogen for a minimum of 30 minutes prior to irradiation. The actively sparging solution was then placed in an EvoluChem™ PhotoRedOx Box photoreactor that was equipped with a Kessil, PR160 427 nm LED Lamp and was then irradiated (100% lamp intensity) for the designated time at room temperature while maintaining active sparging. The resultant reaction mixture was then analyzed directly by LC/MS. Analysis of labeling outcomes using LC/MS was performed either by extracted ion chromatogram intensities (method A) or by integrating the area under the peaks associated with peptide content (method B). These values were totaled, and estimated percentages were assigned according to relative intensities of peaks or ion counts.
Labeling of Octreotide with Pyridinium Salt 2a (Octreotide-2a Conjugate). […] The resulting reaction mixture was directly analyzed by LC/MS using method A to have proceeded with 88% conversion with mono labeling. […]

reactivity in the absence of photoirradiation ([1]; enrichment profiles with and without photoirradiation): thermal inertness
SMILES: COc1ccc2cc(-c3cc(C)[n+](N(C)C(=O)OCCCCC[C@H]4SC[C@H]5NC(=O)N[C@H]54)c(C)c3)ccc2c1 (stereo in doubt) [Pyridinium salt 2b, 4-(6-methoxynaphthalen-2-yl)-2,6-dimethyl-1-(methyl(((5-((3aR,4R,6aS)-2-oxohexahydro-1H-thieno[3,4-d]imidazol-4-yl)pentyl)oxy)carbonyl)amino)pyridin-1-ium tetrafluoroborate]
proteome labeling profile, streptavidin-HRP Western blot of elution profiles ([1]; 0-100 μM probe, with and without irradiation, before digestion): concentration and optically dependent proteome labeling profiles; also recorded: dose-response profiles | number of proteins identified (from ≥2 unique peptides) with ≥2-fold enrichment versus DMSO ([1]; about 100 μM probe, 60 min incubation, 20 min irradiation (302 nm 1a, 320 nm 1b, 440 nm 2b)): 523 proteins | percentage of unique enriched proteins ([1]; comparison of proteome coverage of probes 1a, 1b, 2b at 100 μM): about 69%

SMILES: COC(=O)N(C)[n+]1c(C)cc(-c2ccc3cc(OC)ccc3c2)cc1C [Pyridinium salt 2a, 1-((methoxycarbonyl)(methyl)amino)-4-(6-methoxynapthalen-2-yl)-2,6-dimethylpyridin-1-ium tetrafluoroborate]
conversion ([2]; 20 mM NH4OAc pH 6.9, glutathione, 427 nm LED): 88% and 93% | degree of labeling ([2]; 427 nm): mono labeling
